In publication PMC2553845, “A Specificity Map for the PDZ Domain Family” (PLoS Biology, 2008):
pIC50: −log10 of the molar value. Entries after “also recorded” stand apart in the source; their conditions may differ. Where two headings read alike, the source gives them in different places. Where no end group is shown, it is not given here.

What was measured:
[1] = test system: Naive Crtam−/− CD4 T cells; assay: T cell polarization, Talin staining; type: cell-based; settings: Crtam−/− CD4 T cells electroporated with Crtam plasmid; peptide 1.0 μM; restimulated after 6 h, fixed 14 h later
Protocol: (§1) Naïve Crtam^−/− CD4 T cells were purified and activated with plate-bound anti-CD3 and anti-CD28, as described. On day 4, T cells were electroporated with 4 μg of pIRES_GFP or pIRES_GFP/Crtam plasmid DNA by Amaxa Nucleofector (program X-01). Synthetic peptides (1.0 μM) were added into the cultures, and after 6 h, transfected cells were restimulated at 1 × 10^6 cells/ml with plate-bound antibodies and were fixed 14 h later for Talin staining. After 42 h, [^3H]-thymidine (1 μCi/well) was added, and the plates were harvested 8 h later.

[2] = test system: Naive Crtam−/− CD4 T cells; assay: T cell proliferation, [3H]-thymidine incorporation; type: cell-based; settings: Crtam−/− CD4 T cells electroporated with Crtam plasmid; peptide 1.0 μM; [3H]-thymidine added after 42 h, harvested 8 h later; representative of three independent experiments
Protocol: as §1

[3] = test system: SCRIB PDZ domains; assay: Competition ELISA, binding to the SCRIB PDZ domains; set-up: species or system Human
Protocol: (§2) Peptides were synthesized with acetylated C termini. The binding affinities of peptides for PDZ domains were determined as 50% inhibition concentration (IC50) values using competition ELISAs, as described. The IC50 value was defined as the concentration of peptide that blocked 50% of PDZ domain binding to immobilized peptide.

[4] = biological target: T1, first PDZ domain of ZO-1 (TJP1–1) (Homo sapiens, UniProt Q07157); assay: biochemical; type: binding
T1 construct: the first PDZ domain of ZO-1 (TJP1–1); GST; made in house; host or cells: E. coli
T1 sequence (Q07157 23-110 limits assumed): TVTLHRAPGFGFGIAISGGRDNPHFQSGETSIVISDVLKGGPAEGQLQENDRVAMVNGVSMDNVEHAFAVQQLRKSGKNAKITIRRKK

[5] = biological target: T2, SCRIB-1 (Homo sapiens, UniProt Q14160); assay: Competition ELISA, peptide affinity for PDZ domain; type: binding
T2 construct: synthetic peptide that targets SCRIB PDZ domains 1, 2, and 3; GST; made in house; host or cells: E. coli
Protocol: as §2

[6] = biological target: T3, SCRIB-3 (Homo sapiens, UniProt Q14160); assay: Competition ELISA, peptide affinity for PDZ domain; type: binding
T3 construct: synthetic peptide that targets SCRIB PDZ domains 1, 2, and 3; GST; made in house; host or cells: E. coli
T3 sequence (Q14160 1004-1093 limits assumed): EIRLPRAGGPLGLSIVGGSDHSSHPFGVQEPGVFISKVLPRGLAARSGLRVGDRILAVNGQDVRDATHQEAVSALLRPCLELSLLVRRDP
Protocol: as §2

[7] = biological target: T4, SCRIB-2 (Homo sapiens, UniProt Q14160); assay: Competition ELISA, peptide affinity for PDZ domain; type: binding
T4 construct: synthetic peptide that targets SCRIB PDZ domains 1, 2, and 3; GST; made in house; host or cells: E. coli
T4 sequence (Q14160 862-950 limits assumed): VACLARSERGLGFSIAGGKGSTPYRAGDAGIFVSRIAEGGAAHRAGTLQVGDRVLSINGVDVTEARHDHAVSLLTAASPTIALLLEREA
Protocol: as §2

T2 sequence (Q14160 728-815 limits assumed): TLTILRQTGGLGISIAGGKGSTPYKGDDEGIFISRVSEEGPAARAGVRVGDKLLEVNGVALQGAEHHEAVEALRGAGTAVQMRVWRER

With “Ac-RQIKIWFQNRRMKWKKRSWFETWV (N-terminus assumed) [peptide 14]” the “Effect on late phase of T cell polarization (Talin staining)” value [1] was “causes loss of late-phase T cell polarization”, the “Effect on T cell proliferation ([3H]-thymidine incorporation)” value [2] was “triggers T cell proliferation; also recorded: reverses the hypoproliferative effects of Crtam” and the “Interaction with the SCRIB PDZ domains (in words)” value ([3]; in vitro, synthesized peptides) was “binds to the SCRIB PDZ domains with high affinity”.

In the case of Ac-HMARRVESEV [compound 9], the “Interaction with the SCRIB PDZ domains (in words)” value [3] was “interact with the SCRIB PDZ domains”.

In the case of Ac-KMERTIESEV [compound 10], the “Interaction with the SCRIB PDZ domains (in words)” value [3] was “interact with the SCRIB PDZ domains”.

With “Ac-PPRRHRETYV (N-terminus assumed) [peptide 12]” the “Interaction with the ZO-1 PDZ domain (TJP1–1) (in words)” value [4] was “bound to both” and the “Interaction with the SCRIB PDZ domains (in words)” value [3] was “bound to both”.

“Ac-RQIKIWFQNRRMKWKKRSWFEAWA (N-terminus assumed) [peptide 15]” was tested, and the “Effect on late phase of T cell polarization (Talin staining)” value [1] was “has no effect”, the “Effect on T cell proliferation ([3H]-thymidine incorporation)” value [2] was “has no effect” and the “Interaction with the SCRIB PDZ domains (in words)” value ([3]; in vitro, synthesized peptides) was “nonbinding”.

In the case of “Ac-RRRKRKRTYL (N-terminus assumed) [peptide 13]”, the “Interaction with the ZO-1 PDZ domain (TJP1–1) (in words)” value [4] was “interacted only with this domain” and the “Interaction with the SCRIB PDZ domains (in words)” value [3] was “interacted only with this domain”.

Substance Ac-KMARAARSKV-OH [peptide 11] has a pIC50 [4] of less than 3.30, a pIC50 [5] of less than 3.30 and a pIC50 [6] of less than 3.30. The pIC50 [7] was less than 3.30 and the “Interaction with the SCRIB PDZ domains (in words)” value [3] was “does not”.
